Where a SMILES comes first, the peptide text is derived from it. The star is where a group is joined. Cbz = O=C(OCc1ccccc1)*
Tests used:
Assay type in all cases: cell-based, mouse
[1] = system: Ifn-α4 and Ifn-β genes; assay: QPCR analysis of Ifn-α4 and Ifn-β gene expression in BMDCs; details: BMDCs pre-treated with chemical inhibitor
Procedure: FIG. 3A, FIG. 3B, FIG. 3C, and FIG. 3D show PSM-induced IFN-I signaling in DCs. […] Cell culture medium served as the negative control. […] FIG. 3C is a QPCR analysis of mRNA levels of the Ifn-α4 and Ifn-β genes in BMDCs 5 hrs after co-incubation with PSM, free antigen, or PSM/OVA antigen. […] Data are presented as mean±S.D.; *, P <0.05, **, P <0.01 (see also FIG. 9A and FIG. 9B);
FIG. 4A, FIG. 4B, FIG. 4C, FIG. 4D, FIG. 4E, FIG. 4F, FIG. 4G, FIG. 4H, FIG. 4I, and FIG. 4J show TRIF and MAVS mediated PSM induced interferon type I (IFN-I) activation. FIG. 4A, FIG. 4B, FIG. 4C, and FIG. 4D illustrate PSM-induced changes of Ifn-α4 and Ifn-β gene expression in BMDCs infected with lentiviruses carrying shRNAs targeting the indicated genes. FIG. 4E, FIG. 4F, FIG. 4G, and FIG. 4H illustrate PSM-induced changes of Ifn-α4 and Ifn-β gene expression in BMDCs isolated from wild-type or gene knockout mice. […] FIG. 4J is a schematic view of PSM-induced signaling pathway that mediates IFN-I activation. Data are presented as mean±S.D.; *, P <0.05, **, P <0.01; (see also FIG. 10A, FIG. 10B, FIG. 10C, FIG. 10D, FIG. 10E, and FIG. 10F);
FIG. 10A, FIG. 10B, FIG. 10C, FIG. 10D, FIG. 10E, and FIG. 10F show PSM induced activation of IFN-I signaling in DCs. […]
Real-Time PCR. […] The expression of individual genes was calculated by a ΔΔCT method, and normalized to the expression of β-actin. […]

[2] = system: DCs (DC2.4 cells, BMDCs); assay: DC uptake of PSM/FITC-OVA in cell culture
Description: FIG. 1A, FIG. 1B, FIG. 1C, FIG. 1D, FIG. 1E, FIG. 1F, and FIG. 1G show PSM-loaded antigen was efficiently internalized by dendritic cells (DCs) through phagocytosis and macropinocytosis. […] Upper panel, DC2.4 cells; lower panel, bone-marrow-derived dendritic cells (BMDCs). Scale bar, 25 μm. FIG. 1B is a representative transmission electron microscopy (TEM) image showing the vesicular structure around a PSM/OVA particle inside a DC. Upper panel magnification=5,000×; lower panel magnification=50,000×. Upper panel scale bar=4 μm; lower panel bar=0.5 μm. […] The DCs were extensively washed after priming with 5 μg/mL soluble peptide or PSM/peptides, and either immediately co-incubated with B3Z cells (0 hrs), or cultured for 18 to 30 hrs before T-cell co-incubation; Data are presented as mean±S.D.; *, P <0.05, **, P <0.01; (See also FIG. 7A-FIG. 7E);
Confocal Laser Scanning Microscopy. DC2.4 cells or BMDCs were seeded on eight-well chamber slides at a density of 1×10^5 cells/well and cultured for 24 hrs at 37° C. Each well was washed twice with PBS, and the cells were pulsed with FITC-OVA or PSM/FITC-OVA for 20 min. Cells were washed twice with PBS and incubated for an additional 30 min, 1, 3, or 6 hours in culture medium at 37° C. […] The samples were embedded with Prolong® Gold anti-fade reagent with DAPI (Invitrogen) and analyzed by confocal laser scanning microscopy (Olympus IX81). […]

[3] = system: OVA-specific B3Z CD8 T cells; assay: In vitro antigen presentation assay, IL-2 production by B3Z cells; details: DCs treated with inhibitor before co-incubation with soluble OVA
Procedure: In Vitro Antigen Presentation Assay. The in vitro antigen presentation assay was performed as previously described (Mukai et al., 2011). Briefly, DC2.4 cells or BMDCs isolated from C57BL/6 mice or TAP^−/− mice were seeded in a 96-well flat-bottom culture plates at a density of 2×10^5 cells/well, and cultured for 12 hrs at 37° C. Each well was washed once with PBS, and then the cells were pulsed with soluble OVA, PSM/OVA, OVA-derived MHC class I epitope peptide [OVA257-264; SIINFEKL (SEQ ID NO:1)], or MHC class II epitope peptide [OVA323-339; ISQAVHAAHAEINEAGR (SEQ ID NO:2); Peptide 2.0] for indicated time points, and immediately fixed with 1% paraformaldehyde. The cells were then co-cultured with 2×10^5 B3Z cells or 2×10^5 DOBW cells for 18 hrs at 37° C. The response of stimulated B3Z or DOBW cells was assessed by determining the amount of IL-2 released into the culture medium using a murine IL-2 ELISA KIT (Ebioscience, San Diego, Calif., USA). […]
T-cell response to antigen cross-presentation of PSM-loaded OVA (PSM/OVA) was next assessed in DCs using an in vitro antigen presentation assay. […] It was subsequently determined whether PSM packaging could induce sustained antigen presentation. […]

[4] = system: DCs; assay: Intracellular antigen trafficking by confocal microscopy
Procedure: FIG. 2A, FIG. 2B, and FIG. 2C show antigen presentation of PSM-loaded OVA. FIG. 2A illustrates subcellular transport of antigens. DCs were incubated with PSM/FITC-OVA for 0.5 hrs, and then washed extensively to remove unbound particles. The cells were cultured for an additional 0.5 hr, 1 hr, 3 hrs, or 6 hrs before fixation, followed by immunostaining with antibodies recognizing specific organelles (EEA1 for early endosome; Rab7 for late endosome; TR for recycling endosome; and KDEL for the ER). Scale bar=25 μm. […] Peptide I (100 ng/mL) served as the positive control. […] BMDCs were incubated with OVA or PSM/OVA for 16 hrs, followed by harvest and labeling with the anti-CD11c antibody identifying DCs and the 25D1.16 antibody recognizing OVA257-264/H-2K^b complex on DC surface. Percentages of 25D1.16-staining positive populations in DCs are shown in red numbers. Data are presented as mean±S.D; *, P <0.05, **, P <0.01 (see also FIG. 8A, FIG. 8B and FIG. 8C);
Confocal Laser Scanning Microscopy. DC2.4 cells or BMDCs were seeded on eight-well chamber slides at a density of 1×10^5 cells/well and cultured for 24 hrs at 37° C. Each well was washed twice with PBS, and the cells were pulsed with FITC-OVA or PSM/FITC-OVA for 20 min. […] The samples were embedded with Prolong® Gold anti-fade reagent with DAPI (Invitrogen) and analyzed by confocal laser scanning microscopy (Olympus IX81).

For `C=C1[C@@H](C)[C@H]2[C@H](Cc3ccccc3)NC(=O)[C@]23[C@H](OC(C)=O)/C=C/[C@@](C)(O)C(=O)[C@@H](C)C/C=C/[C@H]3[C@@H]1O` [cytochalasin D], the “Effect of inhibitor on IFN-I induction by PSM” value [1] was “suppressed IFN-I induction by PSM” and the “Effect of inhibitor pre-treatment on particle internalization” value [2] was “significantly decreased particle internalization”.

`CC(C)C[C@@H](C=O)NC(=O)[C@H](CC(C)C)NC(=O)[C@H](CC(C)C)NC(=O)OCc1ccccc1` [MG-132] (Cbz-Leu-Leu-Leu-aldehyde) was tested, and the “Effect on class I antigen presentation of soluble OVA” value [3] was “completely blocked”.

In the case of `O=C(NCCCNc1nc(Nc2cccc(NC(=O)N3CCCC3)c2)ncc1I)c1cccs1` [BX795], the “Effect of inhibitor on IFN-I induction by PSM” value [1] is reported as “markedly inhibited IFN-I induction”.

`N=C(N)NC(=O)c1nc(Cl)c(N)nc1N` [amiloride] was tested, and the “Effect of inhibitor pre-treatment on particle internalization” value [2] was “significantly decreased particle internalization”.

For “free FITC-OVA: free FITC-conjugated ovalbumin”, the “Signal inside DCs at 6 hrs” value [4] was “very weak signal by 6 hour”.
